For 13 compounds, IC50 results are on record in patent US20050239751A1, “Heterocyclic anti-viral compounds comprising metabolizable moieties and their uses” (Rigel Pharmaceuticals, Inc., priority 2004, published 2005).

One test deals with HCV replicon in 5-2 Luc replicon-comprising cells. Briefly: HCV replicon assay (luciferase; HEPC_REPLICON-LUC). The following applies: Hepatitis C virus; Tables 3-12; 50% reduction in luciferase emission, 5-2 Luc replicon cells; read-out: Replicon (IC50). Type of test: cell-based, Hepatitis C virus. An excerpt:
In one embodiment, the inhibitory activity of the metabolically active agent of the prodrug can be confirmed in a replicon assay that assesses the ability of a test compound to block or inhibit HCV replication in replicon cells. One example of a suitable replicon assay is the liver cell-line Huh 7-based replicon assay described in Lohmann et al., 1999, Science 285:110-113. A specific example of this replicon assay which utilizes luciferase translation is provided in the Examples Section. In one embodiment of this assay, the amount of test prodrug that yields a 50% reduction in translation as compared to a control cell (IC50) may be determined.
The inhibitory activity of certain prodrugs of the invention, which may inhibit HCV translation or replication prior to metablism and/or are metabolized into active agents, was confirmed using an HCV replicon assay. The HCV replicon can include such features as the HCV 5′ untranslated region including the HCV IRES, the HCV 3′ untranslated region, selected HCV genes encoding HCV polypeptides, selectable markers, and a reporter gene such as luciferase, GFP, etc. In the assay, actively dividing 5-2 Luc replicon-comprising cells (obtained from Ralf Bartenschlager; see Lohmann et al., 1999, Science 285:110-113) were seeded at a density of between about 5,000 and 7,500 cells/well onto 96 well plates (about 90 µl of cells per well) and incubated at 37° C. and 5% CO2 for 24 hours. Then, the test prodrug (in a volume of about 10 PI) was added to the wells at various concentrations and the cells were incubated for an additional 24-48 hours before luciferase assay. The media was aspirated from each well and Bright-Glo (Promega, Madison, WI) luciferase assay reagents were added to each well according to the manufacturer's instructions. Briefly, the BrightGlo reagent was diluted 1:1 with PBS and 100 µl of diluted reagent was added to each well. After 5 min of incubation at room temperature, luciferin emission was quantified with a luminometer. In this assay, the amount of test prodrug that yielded a 50% reduction in luciferase emission (IC50) was determined. This IC50 value may represent the antiviral activity of the prodrug itself, the activity of prodrug transformed into its active metabolized form, or a combination of the two.
In TABLES 3 through 12, a value of “+” indicates an IC50 of 10 μM or less in the specified assay; a value of “−” indicates an IC50 of greater than 10 μM in the specified assay.
(A replicon is a self-replicating genome or part of one, used to study replication in cells.)
Turning to `COC(=O)C(Cl)(Cl)C(=O)Nc1cccc(-c2cc(-c3c(C4CC4)cccc3C(F)(F)F)no2)c1` [Cpd. 26, 2′,2′-dichloro-2′-(methoxycarbonyl)-N-[3-[3-(2-cyclopropyl-6-trifluoromethylphenyl]5-isoxazoyl]phenyl] acetamide], the IC50 was at most 10 µM.

As to `CCCc1oc(=O)oc1CN(C(=O)C(Cl)Cl)c1cccc(-c2cc(-c3c(Cl)cccc3Cl)no2)c1` [Cpd. 38, 2,2-dichloro-N-[3′-[3′-(2′,6′-dichlorophenyl)-5′-isoxazoyl]phenyl]-N-[(5-n-propyl-1,3-dioxolene-2-one-4-yl)methylene] acetamide], the IC50 was at most 10 µM.

Regarding `CC(C)(C)OC(=O)C(Cl)(Cl)C(=O)Nc1cccc(-c2cc(-c3c(Cl)cccc3Cl)no2)c1` [Cpd. 15], the IC50 is at most 10 µM.

Still in this test, the particulars now being: Tables 3-12; 50% reduction in luciferase emission, 5-2 Luc replicon cells; read-out: Replicon (IC50).
“2,2-dichloro-2-(dihydroxyphosphonyl)-N-[3-[3-(2,6-dichlorophenyl)-5-isoxazoyl]phenyl] acetamide [Cpd. 407]”: the IC50 was above 10 µM.

The next test deals with HCV NS5A protein in 9-13 replicon cells. Description: Replicon quantitative Western blot assay (HEPC_REPLICON-ICWESTERN). The settings on record: Hepatitis C virus, read-out: HEPC_REPLICON-ICWESTERN Result Value. The test is classed as cell-based. The procedure: Alternatively, the inhibitory activity of the metabolically active agents of the prodrugs can be confirmed using a quantitative Western immunoblot assay utilizing antibodies specific for HCV non-structural proteins, such as NS3, NS4A NS5A and NS5B. In one embodiment of this assay, replicon cells are treated with varying concentrations of test prodrug to determine the concentration of the metabolically active agent of the test prodrug that yields a 50% reduction in the amount of a non-structural protein produced as compared to a control sample (IC50). A single non-structural protein may be quantified or multiple non-structural proteins may be quantified. Antibodies suitable for carrying out such immunoblot assays are available commercially (e.g., from BIODESIGN International, Saco, Me.).
Certain prodrugs of the invention, which may inhibit HCV translation or replication prior to metablism and/or are metabolized into active agents, were also tested for their ability to inhibit HCV replication using a quantitative Western blot analysis with antibodies specific for the HCV NS5A or other non-structural proteins. Actively dividing 9-13 replicon cells were seeded into 6-well plates at a density of 1×10^5 cells/well in a volume of 2 ml/well and incubated at 37° C. and 5% CO2 for 24 hours. Various concentrations of test prodrugs (in a volume of 10 ul) were added to the wells and the cells incubated for another 48 hours. Protein samples were prepared from the cultured cells, resolved on a SDS-PAGE gel and transferred to a nitrocellulose membrane. The membrane was blocked with 5% non-fat milk in PBS for 1 hour at room temperature. Primary antibody (anti NS5A antibody; BIODESIGN International, Saco, Me.) incubation was performed for 1 hour at room temperature, after which the membrane was washed 3 times (for 15 min per time) with PBST (PBS plus 0.1% Tween 20). Horseradish peroxidase conjugated secondary antibody incubation was performed for 1 hour at room temperature and the membrane was washed 3 times (for 15 min per time) with PBST. The membrane was then soaked in substrate solution (Pierce) and exposed to a film or quantified using an imager. In this assay, the amount of test prodrug that is believed to be transformed into an active agent under the given conditions that yielded a 50% reduction in the amount of NS5A protein translated as compared to a control sample (IC50) was determined.
On to `CCOP(=O)(OCC)Oc1ccc(CCCN(C(=O)C(Cl)Cl)c2ccnc(-c3cc(-c4c(Cl)cccc4Cl)no3)c2)cc1` [Cpd. 1038, 4-(3-(2,2-Dichloro-N-(2-(3-(2,6-dichlorophenyl)isoxazol-5-yl)pyridin-4-yl)acetamido)propyl)phenyl Diethyl Phosphate], for which the IC50 was 1 to 20 µM.

Staying with this test, now noted: Hepatitis C virus; Table 14; read-out: HEPC_REPLICON-ICWESTERN Result Value.
In the case of `O=C(C(Cl)Cl)N(Cc1ccc(OCCN2CCOCC2)cc1)c1ccnc(-c2cc(-c3c(Cl)cccc3Cl)no2)c1` [Cpd. 1022, 2,2-Dichloro-N-(2-(3-(2,6-dichlorophenyl)isoxazol-5-yl)pyridin-4-yl)-N-(4-(2-morpholinoethoxy)benzyl)acetamide], the IC50 was below 1 µM.

As for `O=C(C(Cl)Cl)N(CCN1CCOCC1)c1ccnc(-c2cc(-c3c(Cl)cccc3Cl)no2)c1` [Cpd. 1026, 2,2-Dichloro-N-(2-(3-(2,6-dichlorophenyl)isoxazol-5-yl)pyridin4-yl)-N-(2-morpholinoethyl)acetamide], the IC50 was above 20 µM.

For `CCCNC(=O)Oc1c(C)cc(CN(C(=O)C(Cl)Cl)c2ccnc(-c3cc(-c4c(Cl)cccc4Cl)no3)c2)cc1C` [Cpd. 1027, 4-((2,2-Dichloro-N-(2-(3-(2,6-dichlorophenyl)isoxazol-5-yl)pyridin4-yl)acetamido)methyl)-2,6-dimethylphenyl Propylcarbamate], the IC50 lay in the range of 1 to 20 µM.

Consider `CC(C)(C)OC(=O)c1ccc(CCCN(C(=O)C(Cl)Cl)c2ccnc(-c3cc(-c4c(Cl)cccc4Cl)no3)c2)cc1` [Cpd. 1040, tert-Butyl 4-(3-(2,2-Dichloro-N-(2-(3-(2,6-dichlorophenyl)isoxazol-5-yl)pyridin-4-yl)acetamido)propyl)benzoate], for which the IC50 lay in the range of 1 to 20 µM.

Regarding `O=C(CCN(C(=O)C(Cl)Cl)c1ccnc(-c2cc(-c3c(Cl)cccc3Cl)no2)c1)C1CCCN1` (stereo not shown) [Cpd. 1024, 2,2-Dichloro-N-(2-(3-(2,6-dichlorophenyl)isoxazol-5-yl)pyridin-4-yl)-N-(3-oxo-3-(pyrrolidin-2-yl)propyl)acetamide], the IC50 was below 1 µM.

Regarding `O=C(C(Cl)Cl)N(COCCc1ccccn1)c1ccnc(-c2cc(-c3c(Cl)cccc3Cl)no2)c1` [Cpd. 1028, 2,2-Dichloro-N-(2-(3-(2,6-dichlorophenyl)isoxazol-5-yl)pyridin-4-yl)-N-((2-(pyridin-2-yl)ethoxy)methyl)acetamide], the IC50 is above 20 µM.

`O=C(C(Cl)Cl)N(CCCc1ccc(CP(=O)(O)O)cc1)c1ccnc(-c2cc(-c3c(Cl)cccc3Cl)no2)c1` [Cpd. 1042, 4-(3-(2,2-Dichloro-N-(2-(3-(2,6-dichlorophenyl)isoxazol-5-yl)pyridin-4-yl)acetamido)propyl)benzylphosphonic Acid]: the IC50 was above 20 µM.

Regarding `CC(C)(C)OC(=O)c1ccc(CN(C(=O)C(Cl)Cl)c2ccnc(-c3cc(-c4c(Cl)cccc4Cl)no3)c2)cc1` [Cpd. 1021, tert-Butyl 4-((2,2-Dichloro-N-(2-(3-(2,6-dichlorophenyl)isoxazol-5-yl)pyridin-4-yl)acetamido)methyl)benzoate], the IC50 is 1 to 20 µM.
